Several values for one entry are separate records, joined by “and”; a condition that tells them apart may be missing. Equal entries are not always repeated.

In the test the test system is 966289-007-R4-J1-PDC complex spheroid viability. Description: Anticancer human tumor 966289-007-R4-J1-PDC patient-derived pancreatic adenocarcinoma cell line growth inhibition [GQUAD]. The note with it: for viability, T/C: stronger effect = lower value. From the text: DNA G-quadruplex Stabilizer Agents in Combinations in Complex Spheroids
A high-throughput screen of multi-cell type tumor spheroids was designed to identify active combinations of DNA G-quadruplex stabilizer agents and targeted small molecules. Complex spheroids include a stromal component modeled by human endothelial cells (HUVEC) and fibroblasts modeled by human mesenchymal stem cells (MSCs). The concentration ranges selected for each drug and investigational agent were based upon clinically achievable concentrations if the clinical Cmax of the agent was known.
Compounds. The drugs and investigational agents: pidnarulex (CX-5461; NSC782164), APTO-253 (NSC789042), BRACO-19 (NSC847499), peposertib (NSC802822), ceralasertib (NSC780249), elimusertib (NSC800525), camonsertib (NSC841442), AZD-1390 (NSC803789), olaparib (NSC753686), talazoparib (NSC767125), ART-558 (NSC835418), sotorasib (NSC818433), MRTX-1133 (NSC836407), SN-38 (NSC673596), topotecan (NSC609699), etoposide (NSC141540), doxorubicin (NSC123127), gemcitabine (NSC613327), 5-fluorouracil (NSC19893), paclitaxel (NSC125973), vemurafenib (NSC761431), panobinostat (NSC761190), R-306465 (JNJ-16241199; NSC773264), adavosertib (NSC754352), TP-3654 (NSC805149), carboplatin (NSC241240), KSQ-4279 (NSC840948), and staurosporine (NSC755774) were obtained from the National Cancer Institute (NCI) Developmental Therapeutics Program Chemical Repository (34). The FDA-approved anticancer drug set is available from the NCI Developmental Therapeutics Program. […] The stock solutions were prepared in dimethyl sulfoxide (DMSO, Sigma-Aldrich, St. Louis, MO, cat. D2650) at 800-fold the tested concentration and stored at -70 degrees C prior to their use. All drugs and investigational agents were tested over a range starting from a high concentration at or near the clinical Cmax and decreasing in half-log increments. If the clinical Cmax for an agent had not been determined, the highest concentration tested was 10 microM.
2.3 Cell Culture. All cells were maintained in an incubator at 37 degrees C and 5% CO2 with 95% humidity. The PDC lines were cultured according to standard operating procedures established by the NCI PDMR. All PDCs were thawed and cultured in Matrigel-coated flasks prepared with a working solution of 1X Ham's F-12 nutrient mix, without supplementation (Invitrogen, cat. 11765054), 100 U/mL penicillin-streptomycin (Invitrogen, cat. 15140122), and 2.5% Matrigel (Corning Inc., cat. 354248) for the first three passages. The 857933-349-R-J2-PDC line was cultured in 6C/Colon 1B media, which includes advanced DMEM/F-12 (Thermo Fisher Scientific, cat. 12634028), 10 mM HEPES (Thermo Fisher Scientific, cat. 15630080), 1X GlutaMAX supplement (Thermo Fisher Scientific, cat. 35050061), 0.1 mg/mL primocin (InvivoGen, cat. ant-pm-2), 10% defined fetal bovine serum, heat inactivated (HyClone Laboratories Inc., cat. SH30070.03HI), 50% L-WRN conditioned media (ATCC, cat. CRL-3276), 1.25 mM N-Acetyl-L-cysteine (Sigma-Aldrich, cat. A9165), 10 mM nicotinamide (Sigma-Aldrich, cat. N0636), 1X B-27 supplement (Thermo Fisher Scientific, cat. 17504044), 1X N-2 supplement (Thermo Fisher Scientific, cat. 17502048), 10 microM Y-27632 dihydrochloride (Tocris Bioscience, cat. 1254), and 50 ng/mL human EGF recombinant protein (Thermo Fisher Scientific, cat. PHG0311). The 485176-168-R4-J1-PDC line was cultured in Panc media, which includes all 6C/Colon 1B media components plus 100 ng/mL human FGF-10 (Thermo Fisher Scientific, cat. 100-26), 500 nM SB-431542 (Selleckchem, cat. S1067), and gastrin (Tocris, cat. 3006).
[…]
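Note: spheroids exposed to the agents for seven days before readout.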
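Throughout, for viability, T/C: percent viability relative to DMSO vehicle control wells taken as 100%.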

In the case of `C#Cc1c(F)ccc2cc(O)cc(-c3ncc4c(N5CC6CCC(C5)N6)nc(OCC56CCCN5CC(F)C6)nc4c3F)c12` (configuration not stated), the viability, T/C (in general, the result in the treated group divided by that in the control group, in per cent) is, setting by setting: (compound 0.0316 µM) 97.1% and 95.7%; (compound 0.1 µM) 112% and 91.4%; (compound 0.316 µM) 104% and 100%; (compound 1 µM) 102% and 97.3%; (compound 3.16 µM) 108% and 98.6%; (compound 10 µM) 113% and 95.9%. Moreover, the IC50 (commonly the concentration needed to halve the response being measured) (curve of compound) was greater than 10000 nM.
With `C=CC(=O)N1CCN(c2nc(=O)n(-c3c(C)ccnc3C(C)C)c3nc(-c4c(O)cccc4F)c(F)cc23)C(C)C1` (configuration not stated), the viability, T/C by setting is: (compound 0.0316 µM) 102% (2×) and 99.4%; (compound 0.1 µM) 102% and 99.7% and 98.1%; (compound 0.316 µM) 104% and 94.3% and 95.7%; (compound 1 µM) 90% and 101% and 75.8%; (compound 3.16 µM) 97.5% and 106% and 100%; (compound 10 µM) 110% and 108% and 116%. Under “curve of compound”, the half-maximal inhibitory concentration (IC50) is greater than 10000 nM.
Turning to `C=CCn1c(=O)c2cnc(Nc3ccc(N4CCN(C)CC4)cc3)nc2n1-c1cccc(C(C)(C)O)n1`, the viability, T/C reads like this: (compound 0.0316 µM) 102% and 99.9% and 97.9%; (compound 0.1 µM) 105% and 97.2% and 108%; (compound 0.316 µM) 110% and 113% and 120%; (compound 1 µM) 101% and 105% and 81.8%; (compound 3.16 µM) 4.65% and 8.05% and 2.6%; (compound 10 µM) 1.72% and 1.84% and 1.48%. In addition, the IC50 (curve of compound) was 1840 nM and 1910 nM and 1580 nM.
In the case of `CC(=O)O[C@H]1C(=O)[C@@]2(C)[C@H]([C@H](OC(=O)c3ccccc3)[C@]3(O)C[C@H](OC(=O)[C@H](O)[C@@H](NC(=O)c4ccccc4)c4ccccc4)C(C)=C1C3(C)C)[C@]1(OC(C)=O)CO[C@@H]1C[C@@H]2O`, the viability, T/C is 5.97% and 4.08% (compound 0.0316 µM); 3.17% and 2.51% (compound 0.1 µM); 4.33% and 3.04% (compound 0.316 µM); 6.75% and 5.13% (compound 1 µM); 9.64% and 6.14% (compound 3.16 µM); 14.1% and 8.4% (compound 10 µM). For the same compound, the IC50 (curve of compound) is less than 31.6 nM.
With `CC(C)(O)C1CCC(Nc2ccc3ncc(-c4cccc(C(F)(F)F)c4)n3n2)CC1` (configuration not stated), the viability, T/C runs as follows: (compound 0.0316 µM) 105% and 92.3% and 96.8%; (compound 0.1 µM) 100% and 95.3% and 106%; (compound 0.316 µM) 98.5% and 95.1% and 91.2%; (compound 1 µM) 93.8% and 90.5% and 107%; (compound 3.16 µM) 42.9% and 43.5% and 36.2%; (compound 10 µM) 75.9% and 49.8% and 33.1%. Also, the half-maximal inhibitory concentration (IC50) (curve of compound) is > 10000 nM and 2890 nM and 2470 nM.
Take `CCCS(=O)(=O)Nc1ccc(F)c(C(=O)c2c[nH]c3ncc(-c4ccc(Cl)cc4)cc23)c1F`: the viability, T/C is, setting by setting: (compound 0.0316 µM) 109% and 105% and 99.4%; (compound 0.1 µM) 102% and 96% and 99.5%; (compound 0.316 µM) 111% (2×) and 97.8%; (compound 1 µM) 110% and 106% and 114%; (compound 3.16 µM) 114% (2×) and 108%; (compound 10 µM) 37.5% and 36.5% and 38%. Further, the IC50 (curve of compound) is 8170 nM and 7890 nM and 8200 nM.
`COc1cc(C2c3cc4c(cc3C(OC3OC5COC(C)OC5C(O)C3O)C3COC(=O)C23)OCO4)cc(OC)c1O` (configuration not stated): the viability, T/C was 106% (2×) and 108% (compound 0.0316 µM); 108% and 111% and 110% (compound 0.1 µM); 41.2% and 40.8% and 50.3% (compound 0.316 µM); 5.14% and 5.7% and 8.75% (compound 1 µM); 1.52% and 0.98% and 2.8% (compound 3.16 µM); 0.83% and 0.61% and 0.86% (compound 10 µM). Where the note is “curve of compound”, the half-maximal inhibitory concentration (IC50) was 271 nM and 320 nM.
Consider `COc1cccc2c1C(=O)c1c(O)c3c(c(O)c1C2=O)CC(O)(C(=O)CO)CC3OC1CC(N)C(O)C(C)O1` (configuration not stated), for which the viability, T/C was 112% and 114% and 102% (compound 0.0316 µM); 12.9% and 19.6% and 8.98% (compound 0.1 µM); 3.19% and 2.75% and 1.72% (compound 0.316 µM); 0.71% and 0.91% and 0.56% (compound 1 µM); 0.27% and 0.41% and 0.16% (compound 3.16 µM); 0.4% and 0.47% and 0.34% (compound 10 µM). Besides, the IC50 (curve of compound) was 65 nM and 69 nM and 60.2 nM.
In the case of `COc1ncnc(C2CC2)c1-c1ncc2cnn(Cc3ccc(-c4nc(C(F)(F)F)cn4C(C)C)cc3)c2n1`, the viability, T/C is 92.2% and 102% and 104% (compound 0.0316 µM); 102% and 103% and 100% (compound 0.1 µM); 101% and 102% and 100% (compound 0.316 µM); 107% and 98% and 97% (compound 1 µM); 103% and 106% (2×) (compound 3.16 µM); 116% and 108% (2×) (compound 10 µM). For the setting “curve of compound”, the half-inhibitory concentration (IC50) was greater than 10000 nM.
Turning to `Cc1cccc(N(C)C(=O)C2C(O)CCN2c2nc(C)cc(C(F)(F)F)c2C#N)c1` (configuration not stated), the viability, T/C was 92% and 111% and 99.9% (compound 0.0316 µM); 98.4% and 97.2% and 95.8% (compound 0.1 µM); 103% (2×) and 109% (compound 0.316 µM); 94.9% and 98% and 99.5% (compound 1 µM); 107% and 106% and 89.2% (compound 3.16 µM); 102% and 107% (2×) (compound 10 µM). In addition, the half-inhibitory concentration (IC50) (curve of compound) was greater than 10000 nM.
Take `Cc1cnc(CNC(=O)c2c(=O)c3ccc(N4CCCN(C)CC4)nc3n3c2sc2ccccc23)cn1`: the viability, T/C was 36.7% [middle of 12 runs] (compound 0.1 µM); 12.6% [middle of 12 runs] (compound 0.316 µM); 6.91% [middle of 11 runs] (compound 1 µM); 5.45% [middle of 11 runs] (compound 3.16 µM); 0.16% [middle of 11 runs] (compound 10 µM). Further, the IC50 (compound alone, run of 03/18/2024) was 81.7 nM [middle of 11 runs].
Turning to `Nc1ccn(C2OC(CO)C(O)C2(F)F)c(=O)n1` (configuration not stated), the viability, T/C was 6.63% and 12% and 8.01% (compound 0.0316 µM); 0.75% and 1.27% and 0.79% (compound 0.1 µM); 0.96% and 0.9% and 0.65% (compound 0.316 µM); 0.7% and 0.97% and 0.68% (compound 1 µM); 0.83% and 1.32% and 0.61% (compound 3.16 µM); 0.79% and 1.07% and 0.63% (compound 10 µM). Further, the IC50 (curve of compound) is less than 31.6 nM.
For `O=C(NO)c1cnc(N2CCN(S(=O)(=O)c3ccc4ccccc4c3)CC2)nc1`, the viability, T/C (compound 0.0316 µM) is 104% and 97% and 89.4%; the viability, T/C (compound 0.1 µM) was 104% (2×) and 99.9%; the viability, T/C (compound 0.316 µM) was 33.4% and 39% and 70%; the viability, T/C (compound 1 µM) was 7.89% and 9.13% and 14.1%; the viability, T/C (compound 3.16 µM) was 1.55% and 1.2% and 4.88%; the viability, T/C (compound 10 µM) is 0.4% and 0.34% and 0.29%. In addition, for the setting “curve of compound”, the half-inhibitory concentration (IC50) was 241 nM and 258 nM and 480 nM.
Turning to `O=c1[nH]cc(F)c(=O)[nH]1`, the viability, T/C runs as follows: (compound 0.0316 µM) 102% and 98.6% and 93.7%; (compound 0.1 µM) 102% and 85.7% and 101%; (compound 0.316 µM) 14% and 12.6% and 16.4%; (compound 1 µM) 6.4% and 6.04% and 6.66%; (compound 3.16 µM) 6.46% and 5.66% and 4.89%; (compound 10 µM) 6.43% and 6.71% and 6.08%. For the same compound, under “curve of compound”, the 50% inhibitory concentration (IC50) was 197 nM and 176 nM and 196 nM.
